In the oligonucleotide strings, read from the 5' end, every base follows the letter of its sugar. An asterisk marks phosphorothioate; unmarked linkages are phosphodiester. Other units and linkages are bracketed, terminal groups are in braces. A string of capitals states the bases alone. e = 2'-O-(2-methoxyethyl) (MOE); [5mC] = 5-methylcytosine; d = 2'-deoxy (DNA)
Columns and labels:
Format in all cases: cell-based
human Factor XI mRNA [1] = test: Antisense inhibition in HepG2 cells by microwalk gapmers, 75 nM, lipofectin (Example 3); settings: HepG2 cells, 75 nM, oligonucleotides targeted to nucleobases 1275 to 1318 of SEQ ID NO: 1
Procedure, shortened: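 HepG2 cells (10,000 per well) were transfected with 75 nM gapmer using lipofectin and treated for about 24 h. Factor XI mRNA was quantified by real-time PCR, normalized to RiboGreen total RNA and expressed as percent inhibition versus untreated controls.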

human Factor XI mRNA [2] = test: Dose-dependent inhibition and IC50 in HepG2 cells, electroporation (Example 15)
Description: Cells were plated at a density of 20,000 cells per well and transfected using electroporation with 123.46 nM, 370.37 nM, 1,111.11 nM, 3,333.33 nM and 10,000 nM concentrations of antisense oligonucleotide, as specified in Table 52. After a treatment period of approximately 16 hours, RNA was isolated from the cells and Factor XI mRNA levels were measured by quantitative real-time PCR. Human Factor XI primer probe set RTS 2966 was used to measure mRNA levels. Factor XI mRNA levels were adjusted according to total RNA content, as measured by RIBOGREEN. Results are presented as percent inhibition of Factor XI, relative to untreated control cells.

human Factor XI mRNA [3] = test: Antisense inhibition in HepG2 cells by microwalk gapmers, 8,000 nM, electroporation (Example 14); settings: HepG2 cells, 8,000 nM
Description: These microwalk gapmers were tested in vitro. Cultured HepG2 cells at a density of 20,000 cells per well were transfected using electroporation with 8,000 nM antisense oligonucleotide. After a treatment period of approximately 24 hours, RNA was isolated from the cells and Factor XI mRNA levels were measured by quantitative real-time PCR. Factor XI mRNA levels were adjusted according to total RNA content, as measured by RIBOGREEN. Results are presented as percent inhibition of Factor XI, relative to untreated control cells.
The chimeric antisense oligonucleotides in Table 51 were designed as 5-10-5 MOE, 5-8-5 and 6-8-6 MOE gapmers. The first two listed gapmers in Table 51 are the original gapmers (ISIS 416850 and ISIS 416858) from which ISIS 445493-445543 were designed via microwalk, and are designated by an asterisk. The 5-10-5 gapmers are 20 nucleotides in length, wherein the central gap segment is comprised of ten 2′-deoxynucleotides and is flanked on both sides (in the 5′ and 3′ directions) by wings comprising five nucleotides each. The 5-8-5 gapmers are 18 nucleotides in length, wherein the central gap segment is comprised of eight 2′-deoxynucleotides and is flanked on both sides (in the 5′ and 3′ directions) by wings comprising five nucleotides each. The 6-8-6 gapmers are 20 nucleotides in length, wherein the central gap segment is comprised of eight 2′-deoxynucleotides and is flanked on both sides (in the 5′ and 3′ directions) by wings comprising six nucleotides each. For each of the motifs (5-10-5, 5-8-5 and 6-8-6), each nucleotide in the 5′ wing segment and each nucleotide in the 3′ wing segment has a 2′-MOE modification. The internucleoside linkages throughout each gapmer are phosphorothioate (P═S) linkages. All cytidine residues throughout each gapmer are 5-methylcytidines. “Human Target start site” indicates the 5′-most nucleotide to which the gapmer is targeted in the human sequence. “Human Target stop site” indicates the 3′-most nucleotide to which the gapmer is targeted in the human sequence. Each gapmer listed in Table 51 is targeted to SEQ ID NO: 1 (GENBANK Accession No. NM_000128.3). Each gapmer is Table 51 is also fully cross-reactive with the rhesus monkey Factor XI gene sequence, designated herein as SEQ ID NO: 274 (exons 1-15 GENBANK Accession No. NW—001118167.1). ‘Rhesus monkey start site’ indicates the 5′-most nucleotide to which the gapmer is targeted in the rhesus monkey sequence. ‘Rhesus monkey stop site’ indicates the 3′-most nucleotide to which the gapmer is targeted to the rhesus monkey sequence.

Substance	% inhibition of human Factor XI mRNA levels (human Factor XI mRNA [1]) [%]	percent inhibition of Factor XI mRNA (human Factor XI mRNA [2]; electroporation, 123.47 nM) [%]	percent inhibition of Factor XI mRNA (human Factor XI mRNA [2]; electroporation, 370.37 nM) [%]	percent inhibition of Factor XI mRNA (human Factor XI mRNA [2]; electroporation, 1,111.11 nM) [%]	percent inhibition of Factor XI mRNA (human Factor XI mRNA [2]; electroporation, 3,333.33 nM) [%]	percent inhibition of Factor XI mRNA (human Factor XI mRNA [2]; electroporation, 10,000.0 nM) [%]	Percent inhibition of human Factor XI mRNA levels (human Factor XI mRNA [3]) [%]	IC50 (human Factor XI mRNA [2]; electroporation) [µM]
416849 (antisense eG*e[5mC]*eA*e[5mC]*eA*dG*dT*dT*dT*d[5mC]*dT*dG*dG*d[5mC]*dA*eG*eG*e[5mC]*e[5mC]*eT) [compound 416849]	88	5	5	26	57	68	88	–
416857 (antisense e[5mC]*eG*eG*e[5mC]*eA*dT*dT*dG*dG*dT*dG*d[5mC]*dA*d[5mC]*dA*eG*eT*eT*eT*e[5mC]) [compound 416857]	92	2	20	35	62	72	91	–
445498 (antisense GGTGCACAGTTTCTGGCAGG; 6-8-6 gapmer chemistry, chemistry not fully specified) [compound 445498]	–	3	1	27	50	58	83	–
445503 (antisense GCATTGGTGCACAGTTTCTG; 6-8-6 gapmer chemical modifications, chemistry not fully specified) [compound 445503]	–	0	0	22	36	60	89	5.9
445504 (antisense eG*eG*e[5mC]*eA*eT*eT*dG*dG*dT*dG*d[5mC]*dA*d[5mC]*dA*eG*eT*eT*eT*e[5mC]*eT) [compound 445504]	–	8	20	38	53	68	87	–
445505 (antisense e[5mC]*eG*eG*e[5mC]*eA*eT*dT*dG*dG*dT*dG*d[5mC]*dA*d[5mC]*eA*eG*eT*eT*eT*e[5mC]) [compound 445505]	–	12	30	39	59	77	89	–
445532 (antisense e[5mC]*eG*eG*e[5mC]*eA*dT*dT*dG*dG*dT*dG*d[5mC]*dA*e[5mC]*eA*eG*eT*eT) [compound 445532]	–	5	12	39	60	70	89	–

— patent US20120083522A1, “MODULATION OF INFLAMMATORY RESPONSES BY FACTOR XI” (Isis Pharmaceuitcals, inc., priority 2009, published 2012)
